Common to all, as to format: binding, sheep
For assay [1], the system named is Antibody to Immunogen III. Conditions: Cross-reactants at 100 ng/ml; 1000ng/ml; single level of cross reactants. The protocol:
(§1) The wells of an enhanced binding 96 well polystyrene microtiter plate were coated with IgG fraction of antiserum raised to Immunogen VI, diluted in 10mM Tris, pH8.5 (125µl/well). The appropriate antibody coating dilution was determined using standard ELISA checkerboard techniques. The plate was incubated overnight at 4°C, washed 4 times over 10 minutes with Tris buffered saline containing Tween 20 (TBST) and tapped dry. Standard solutions of RCS-4 were prepared in TBST at 0, 0.3125, 0.625, 1.25, 2.5, 5, 10 and 20ng/ml, and 50µl of each was added to the appropriate wells (see figure 1). 75µl of conjugate (appropriate hapten-HRP) diluted in Tris buffer (pH 7.2) containing EDTA, D-mannitol, sucrose, thimerosal and BSA, was added to each of the wells. The appropriate dilution of conjugate was also determined using standard ELISA checkerboard techniques. The plate was incubated at 25°C for 1 hour. Excess unbound conjugate was removed by washing 6 times over a 10 minute period with TBST. 125µl oftetramethylbenzidine (TMB) substrate solution was added to each well of the plate that was then incubated for 20 minutes in the dark at room temperature. The reaction was terminated by addition of 125µl 0.2M H2SO4 to each well. The absorbance was then measured at 450nm using a microtiter plate reader. The data are inputted to a computer program called 'KC Junior'. It is a 4 parameter fit curve and allow the calculatation of concentrations between the standard runs. This program is used to calculate the IC50s by dividing the 0ng/ml OD value by 2 and obtaining the concentration value from the curve for this OD.
In a similar manner to that described above, the wells of a 96-well microtiter plate were coated with the IgG fraction of the antiserum raised to Immunogens I, II or III. Standard solutions (JWH-250 for Immunogen III) were applied at 0, 0.625, 1.25, 2.5, 5, 10, 20 and 40ng/ml and conjugate was employed as detection reagent.
(§2) The data set our in Tables 3 and 4 are generated using antibodies raised against the indicated Immunogens in a competitive binding assay with the indicated tracers, using the indicated standards: Table 2
(§3) In order to determine the specificity of the competitive ELISAs, standard solutions of a range of structurally similar synthetic cannabinoids and their metabolites were prepared in TBST. Using the calibration curves generated and employing a single level of cross reactants, these were used to determine the cross-reactivity of each immunoassay with these substances. Table 4: Cross reactivity of the competitive ELISAs for synthetic cannabinoids and their metabolites

Assay [2] deals with Antibody to Immunogen V. Conditions: Cross-reactants at 100 ng/ml; 1000ng/ml; single level of cross reactants. As for the experimental part:
as §1
In a similar manner to that described above, the wells of a 96-well microtiter plate were coated with the IgG fraction of the antiserum raised to Immunogens IV, V, VII or VIII. Standard solutions (RCS-8 for Immunogen V) were prepared in TBST at 0, 1.25, 2.5, 5, 10, 20, 40 and 80ng/ml and conjugate was employed as detection reagent.
as §2, §3

Assay [3] has as its system Antibody to Immunogen VI. As for the experimental part:
as §1, §2, §3

The mark [4] stands for this setting: Cross-reactants at 100 ng/ml, 1000ng/ml, single level of cross reactants.

Where a name gives a salt, the structure may show the parent alone. Read-outs that look alike come from different tables or passages of the source.

Turning to `CCCCCn1c(C)c(C(=O)c2cccc3ccccc23)c2ccccc21` [JWH-007], the entries for the “%B/B0” value in assay [1], in assay [2] and in assay [3] (setting [4]) were 81.87%, 75.22% and 81.74%, respectively.

Take `CCCCCn1cc(C(=O)c2cccc3c(Cl)cccc23)c2ccccc21` [JWH-398 5-chloronaphthyl isomer]: the “%B/B0” value in assay [1] is 64.92%; in assay [2], 70.34%; in assay [3] (setting [4]) it was 76.13%.

`O=C(c1cccc(I)c1)c1cn(CCCCCF)c2ccccc12` [AM-694 3-iodo isomer]: the “%B/B0” value in assay [1] was determined as 67.86%; in assay [2] it was 63.18%; in assay [3] (setting [4]) it was 44.38%.

Turning to `O=C(c1ccc(I)cc1)c1cn(CCCCCF)c2ccccc12` [AM-694 4-iodo isomer], the “%B/B0” value stood at 65.53% in assay [1], 77.65% in assay [2] and 16.99% in assay [3] (setting [4]).

With `COc1ccccc1CC(=O)c1cn(CCCCCC(=O)O)c2ccccc12` [JWH 250 N-(5-carboxypentyl) metabo lite], the “%B/B0” value in assay [1] amounted to 89.61%; in assay [2], 8.60%; in assay [3] (setting [4]), 85.31%.

Turning to `CCCCCn1cc(C(=O)Cc2ccccc2Cl)c2ccccc21` [JWH-203], the “%B/B0” value worked out at 18.15% in assay [1], 15.33% in assay [2] and 83.09% in assay [3] (setting [4]).

Regarding `NCCc1c[nH]c2ccc(O)cc12` [Serotonin HCl], the “%B/B0” value in assay [1] is reported as 87.69%; in assay [2], 85.91%; in assay [3] (setting [4]), 98.60%.

For `CCCCCCn1cc(C(=O)c2cccc3ccccc23)c2ccccc21` [JWH-019], the “%B/B0” value in assay [1] is on record as 88.06%; in assay [2] it was 70.25%; in assay [3] (setting [4]), 78.02%.

On to `CS(=O)(=O)O.Cc1c(C(=O)c2cccc3ccccc23)c2cccc3c2n1[C@@H](CN1CCOCC1)CO3` [Win 55,212-3 mesylate], for which the entries for the “%B/B0” value in assay [1], in assay [2] and in assay [3] (setting [4]) were 87.64%, 72.78% and 83.98%, respectively.

What is called IC50 is the midpoint of a concentration-inhibition curve. On to `CCCCCn1cc(C(=O)c2ccc(OC)cc2)c2ccccc21` [RCS-4], for which the “%B/B0” value in assay [1] is given as 57.10%; in assay [2], 64.84%; in assay [3] (setting [4]), 4.90%; in assay [3] (standard curve, RCS-4 0.3125 ng/ml) it was 74%; in assay [3] (standard curve, RCS-4 0.625 ng/ml), 60%; in assay [3] (standard curve, RCS-4 1.25 ng/ml), 46%. The “%B/B0” value in assay [3] (standard curve, RCS-4 2.5 ng/ml) turned out to be 34%; in assay [3] (standard curve, RCS-4 5 ng/ml), 25%; in assay [3] (standard curve, RCS-4 10 ng/ml), 18%; in assay [3] (standard curve, RCS-4 20 ng/ml) it was 13%. Also, the “IC50” value in assay [3] (standard RCS-4, standard concentration which produces 50% B/B0) stood at 1.020 ng/mL.

Turning to `Cc1ccc(C(=O)c2cn(CCCCCO)c3ccccc23)c2ccccc12` [JWH-122 N-(5-hydroxypentyl) metabo lite], the “%B/B0” value is recorded as 81.72% in assay [1], 68.77% in assay [2] and 71.84% in assay [3] (setting [4]).

With `CCc1ccc(C(=O)c2cn(CCCCCC(=O)O)c3ccccc23)c2ccccc12` [JWH-210 N-(5-carboxypentyl) metabo lite], the “%B/B0” value in assay [1] came to 94.24%; in assay [2], 70.77%; in assay [3] (setting [4]), 63.50%.

`CCCCn1cc(C(=O)c2cccc3ccccc23)c2cc(O)ccc21`: the “%B/B0” value is reported as 95.65% in assay [1], 82.86% in assay [2] and 85.96% in assay [3] (setting [4]).

For the molecule `CCCCCn1ccc(C(=O)c2cccc3ccccc23)c1` [JWH-030], the “%B/B0” value came out at 95.34% in assay [1], 77.27% in assay [2] and 86.70% in assay [3] (setting [4]).

On to `CCCCCn1cc(C(=O)c2cccc3c(OC)cccc23)c2ccccc21` [JWH-081 5-methoxynaphthyl isomer], for which the figures for the “%B/B0” value in assay [1], in assay [2] and in assay [3] (setting [4]) were 76.35%, 90.40% and 77.74%, respectively.

In the case of `CS(=O)(=O)O.Cc1c(C(=O)c2cccc3ccccc23)c2cccc3c2n1[C@H](CN1CCOCC1)CO3` [(+)WIN 55212-2 (mesylate)], the figures for the “%B/B0” value in assay [1], in assay [2] and in assay [3] (setting [4]) were 93.28%, 68.43% and 91.65%, respectively.

For the origin of these results see patent EP2698384A1, “Detection of synthetic cannabinoids” (priority 2012, dated 2014).
